Laboratory results as given in patent US20240182508A1, “AMPHIPATHIC COMPOUND, PREPARATION METHOD THEREFOR, AND SURFACTANT COMPOSITION COMPRISING SAME” (priority 2022, published 2024).

Columns and labels:
[1] = CMC (critical micelle concentration) from surface tension by the stalagmometric method; assay type: physicochemical; details: graph of surface tension versus sample concentration
Method: The surface tension values of steviol bisglycoside (rebaudioside A) and steviol monoglycoside-acid, ester, and amide obtained in Examples 1, 4, and 5 were measured and compared at various concentrations using the stalagmometric method. In addition, through a graph of surface tension versus sample concentration, CMC was measured to be 5.14 mM (rebaudioside A), 1.1 mM (Example 1, steviolbioside), 0.15 mM (Example 4, rebaudioside B methyl ester), and 0.5 mM (Example 5, rebaudioside B n-hexylamide).

[2] = Foaming properties (foam maintained on standing, measuring cylinder); assay type: physicochemical; details: 10 mg in 5 ml distilled water, shaken 10 seconds
Method: The foaming properties of steviol monoglycoside-ester obtained in Example 4 were confirmed. 5 ml of distilled water and 10 mg of steviol monoglycoside-ester obtained in Example 4 were mixed in a measuring cylinder to form micelles, then shaken for 10 seconds to generate foam, then allowed to stand at room temperature to compare the amount of foam.
Thereby, it was confirmed that about 50% of the foam was maintained after 15 minutes and about 30% of the foam was maintained after 30 minutes, based on the height of the foam.

Structure (SMILES)	CMC [1]	foam maintained, based on the height of the foam ([2]; after 15 minutes at room temperature)	foam maintained, based on the height of the foam ([2]; after 30 minutes at room temperature)
C=C1C[C@@]23CC[C@H]4[C@@](C)(CCC[C@@]4(C)C(=O)O)[C@@H]2CC[C@]1(O[C@@H]1O[C@H](CO)[C@@H](O)[C@H](O)[C@H]1O[C@@H]1O[C@H](CO)[C@@H](O)[C@H](O)[C@H]1O)C3 [Example 1, steviolbioside]	1.1 mM		
C=C1C[C@@]23CC[C@H]4[C@@](C)(CCC[C@@]4(C)C(=O)OC)[C@@H]2CC[C@]1(O[C@@H]1O[C@H](CO)[C@@H](O)[C@H](O[C@@H]2O[C@H](CO)[C@@H](O)[C@H](O)[C@H]2O)[C@H]1O[C@@H]1O[C@H](CO)[C@@H](O)[C@H](O)[C@H]1O)C3 [Example 4, rebaudioside B methyl ester]	0.15 mM	about 50%	about 30%
C=C1C[C@@]23CC[C@H]4[C@@](C)(CCC[C@@]4(C)C(=O)NCCCCCC)[C@@H]2CC[C@]1(O[C@@H]1O[C@H](CO)[C@@H](O)[C@H](O[C@@H]2O[C@H](CO)[C@@H](O)[C@H](O)[C@H]2O)[C@H]1O[C@@H]1O[C@H](CO)[C@@H](O)[C@H](O)[C@H]1O)C3 [Example 5, rebaudioside B n-hexylamide]	0.5 mM		
C=C1C[C@@]23CC[C@H]4[C@@](C)(CCC[C@@]4(C)C(=O)O[C@@H]4O[C@H](CO)[C@@H](O)[C@H](O)[C@H]4O)[C@@H]2CC[C@]1(O[C@@H]1O[C@H](CO)[C@@H](O)[C@H](O[C@@H]2O[C@H](CO)[C@@H](O)[C@H](O)[C@H]2O)[C@H]1O[C@@H]1O[C@H](CO)[C@@H](O)[C@H](O)[C@H]1O)C3 [rebaudioside A, reference compound]	5.14 mM		
